Patent US20040137426A1, “Gp41 peptides and methods based thereon for inhibiting HIV fusion to target cells” (priority 2002, published 2004)
≈ marks a conversion by molar mass, not a printed value.

Key:
HIV-1 pseudovirus = assay: Timing of peptide addition and inhibition of pseudovirus infection; assay type: cell-based
[1] = test system: W61D (R5X4 dual tropic primary isolate) pseudovirus; assay: Viral entry, Env pseudovirus with luciferase readout: W61D; assay type: cell-based, HIV-1; details: for N36E on CCR5+ indicator cells
Method: (§1) In preliminary experiments we tested the panel of peptides for inhibition of HIV-1 infectivity using a single CXCR4-using T cell line-adapted virus isolate: HIV-1IIIB. Serial dilutions of the peptides were added to the target cells immediately followed by virus. After 5-7 days culture, supernatant was tested for viral p24 activity using a sensitive p24 ELISA. […] These viruses carry a luciferase readout and are competent for a single cycle of replication only. We chose to test Env from […] viruses representing: X4 TCLA virus (HXB2); X4 primary isolate (WHO D clade); R5X4 dual tropic primary isolate (W61D) and R5 primary isolates (JRFL and Bal).

[2] = test system: HXB2 (X4 TCLA virus) pseudovirus; assay: Viral entry, Env pseudovirus with luciferase readout: HXB2; assay type: cell-based, HIV-1; details: from IC50 data of table 3
Method: as §1

HIV-1 [3] = details: for activity compared with T20 and T1249: across clades, Figs 5 and 6; for IC50: read-out: IC50 in hPBMCs, independent assays in hPBMCs (N36E 6, W37Q 5)
Method: The peptides were evaluated against two HIV-1 stains IIIB and BR92/92/021. These two stains were selected in part based on their co-receptor utilization preferences; HIV-1 IIIB utilizes the CXCR4 co-receptor whereas HIV-1 BR92 utilizes CCR5. To test anti-HIV efficacy, fresh Human Peripheral Blood Mononuclear Cells (PBMCs) were obtained from single, normal hepatitis and HIV-1 negative donors. The cells were stimulated by a using CD3+method. Drug testing was performed in a 96 well format in triplicate. Each plate contained control wells (cells+virus), experimental wells (drug+cells+virus) and compound control wells (drug+cells, to monitor cytotoxicity). The read-out for viral infectivity after seven days of infection was based on reverse transcriptase activity of cell free supernatant samples. Drug toxicity was determined in the control well by a standard assay using the tetrazolium compound, which was converted in live cells into a colored formazan product that can readily be monitored on the microtiter plate.
PBMCs were stimulated via the CD3 antigen that is part of the T cell receptor. […] The T cell preparation contains about 50% CD4+cells that are susceptible to HIV-1 infection. Therefore no further separation between CD4+ and CD8+cells is necessary.
The data were obtained according to the following protocol:
Pre-incubate diluted peptides (0 to 50 ug/ml) with virus strain
Add 3 day anti-CD3 stimulated human peripheral blood mononuclear cells (50,000/well)
Incubate 37° C. for 6 days in IL-2 containing media
Test cell-free culture supernatants for reverse transcriptase (RT) activity at day 6
Test cells in cultures for toxicity using an MTS (CellTiter96 Reagent Promega) staining for cell viability
All assay results shown were done in triplicate

HIV-1 [4] = details: for activity compared with the new analogues of T-20, T-21 and DP219: qualitative comparison
Method: Peptides were tested in vitro for inhibition of early steps in cell-free HIV-1 infection and direct cell-to-cell spread of virus using T-cell line-adapted and primary isolates and recombinant HIV-1 viruses pseudotyped for env using CCR5, CXCR4 or both coreceptors.
Selected de novo designed peptides according to the invention (S291, N36E, W37Q and W371) and the new analogues of T20, T21 and DP219 were evaluated for inhibition of both cell-free HIV-1 infection and of direct cell-to-cell spread using a range of T-cell line-adapted and primary isolates and recombinant HIV-1 pseudotyped for env derived from patient isolates of different clades.

JRFL (R5) pseudovirus = assay: Viral entry, Env pseudovirus with luciferase readout: JRFL; assay type: cell-based, HIV-1; details: from IC50 data of table 3
Method: as §1

[5] = test system: WHO isolate Clade D (X4) pseudovirus; assay: Viral entry, Env pseudovirus with luciferase readout: WHO isolate Clade D; assay type: cell-based, HIV-1; details: from IC50 data of table 3
Method: as §1

SF162 = assay: Primary isolate infectivity in peripheral blood lymphocytes, p24 ELISA: SF162; assay type: cell-based, HIV-1
Method: (§2) Infectivity studies were performed using the inhibition of HIV-1 infection of the gp41 derived peptides using receptor bearing cells for both HIV-1 T cell line adapted virus (HIV-1 IIIB) in MT2 cells and primary isolate virus (SF162, JRCSF and 89.6) in peripheral blood lymphocytes. Both involved the culture of the virus with the peptide or its scrambled form for 1 hr at 37° C., 5% CO2 and then subsequent addition of target cells for 7 days. Inhibition was assessed using an enzyme-linked immunosorbent assay (ELISA) of viral core protein p24 antigen.

JRCSF = assay: Primary isolate infectivity in peripheral blood lymphocytes, p24 ELISA: JRCSF; assay type: cell-based, HIV-1
Method: as §2

HIV-1 IIIB = assay type: cell-based; details: lab-adapted HIV-1 IIIB
Method: Both involved the culture of the virus with the peptide or its scrambled form for 1 hr at 37° C., 5% CO2 and then subsequent addition of target cells for 7 days. Inhibition was assessed using an enzyme-linked immunosorbent assay (ELISA) of viral core protein p24 antigen.

BR94 = assay: Primary isolate infectivity in PBMCs: patient isolate BR94 (clade B); assay type: cell-based, HIV-1
89.6 = assay: Primary isolate infectivity in peripheral blood lymphocytes, p24 ELISA: 89.6; assay type: cell-based, HIV-1; details: primary isolate 89.6
Method: as §2

SMILES | inhibition, peptide preincubated with target cells then washed prior to addition of virus (HIV-1 pseudovirus; cells washed before virus) | inhibition, virus preincubated with cells for 1 h prior to addition of peptide (HIV-1 pseudovirus; peptide added 1 h after virus and cells) | inhibitory effect, simultaneous mixing of virus, cells and peptide (HIV-1 pseudovirus; simultaneous addition) | inhibition, virus preincubated with peptide 1 h at 37° C. then washed by ultrafiltration prior to addition to cells (HIV-1 pseudovirus; virus washed before cells) | fold more active than Y36F, W61D pseudovirus [1] [fold] | fold more active than Y36F, HXB2 pseudovirus [2] [fold] | activity compared with T20 and T1249 (HIV-1 [3]) | IC50 (HIV-1 [3]) [nM] | fold more potent than analogues Y36F, K42K and E30E, frequently (HIV-1 [4]) [fold] | activity compared with the new analogues of T-20, T-21 and DP219 (HIV-1 [4]) | fold more active than Y36F, JRFL pseudovirus (JRFL (R5) pseudovirus) [fold] | fold more active than Y36F, WHO D clade pseudovirus [5] | Primary isolate (ID50) SF162 (SF162) [µg/mL] | Primary isolate (ID50) JRCSF (JRCSF) [µg/mL] | ID50% HIV-1IIIB infectivity (HIV-1 IIIB) [µg/mL] | ID90 HIV-1IIIB infectivity (HIV-1 IIIB) [µg/mL] | MIC HIV-1IIIB infectivity (HIV-1 IIIB) [µg/mL] | Primary isolate (ID50) BR94 (BR94) [µg/mL] | Primary isolate (ID50) 89.6 (89.6) [µg/mL]
CC[C@H](C)[C@H](NC(=O)[C@H](CC(C)C)NC(=O)[C@H](CO)NC(=O)[C@H](Cc1ccc(O)cc1)NC(=O)[C@@H](NC(=O)[C@H](CC(C)C)NC(=O)[C@H](CO)NC(=O)[C@@H](NC(=O)[C@H](Cc1ccc(O)cc1)NC(=O)[C@H](CC(N)=O)NC(=O)[C@H](CC(=O)O)NC(=O)[C@@H](NC(=O)[C@H](CCC(=O)O)NC(=O)[C@H](CCCNC(=N)N)NC(=O)[C@H](CCC(=O)O)NC(=O)[C@H](Cc1c[nH]c2ccccc12)NC(=O)[C@H](CCC(=O)O)NC(=O)[C@H](CCSC)NC(=O)[C@H](Cc1c[nH]c2ccccc12)NC(=O)[C@@H](NC(=O)[C@H](CCSC)NC(=O)[C@H](CC(N)=O)NC(=O)[C@@H](N)CC(N)=O)[C@@H](C)O)[C@@H](C)CC)[C@@H](C)O)[C@@H](C)CC)C(=O)N[C@@H](CCC(=O)O)C(=O)N[C@@H](CCC(=O)O)C(=O)N[C@@H](CO)C(=O)N[C@@H](CCC(N)=O)C(=O)N[C@@H](CC(N)=O)C(=O)N[C@@H](CCC(N)=O)C(=O)N[C@@H](CCC(N)=O)C(=O)N[C@@H](CCC(=O)O)C(=O)N[C@@H](CCCCN)C(=O)N[C@@H](CC(N)=O)C(=O)N[C@@H](CCC(=O)O)C(=O)N[C@@H](CCC(N)=O)C(=O)N[C@@H](CCC(=O)O)C(=O)O [Peptide N36E] | no inhibitory effect | complete absence of inhibition | most pronounced inhibitory effect | weak but poorly reproducible inhibition | 18 | 5 | compare well to both T20 and to T1249 | 2 ± 1 | 10 | significantly greater potency | 80 |  |  |  |  |  |  |  | 
CC[C@H](C)[C@H](NC(=O)[C@H](CC(C)C)NC(=O)[C@H](CO)NC(=O)[C@H](Cc1ccc(O)cc1)NC(=O)[C@@H](NC(=O)[C@H](CC(C)C)NC(=O)[C@H](CO)NC(=O)[C@@H](NC(=O)[C@H](Cc1ccc(O)cc1)NC(=O)[C@H](CC(N)=O)NC(=O)[C@H](CC(=O)O)NC(=O)[C@@H](NC(=O)[C@H](CCC(=O)O)NC(=O)[C@H](CCCNC(=N)N)NC(=O)[C@H](CCC(=O)O)NC(=O)[C@H](Cc1c[nH]c2ccccc12)NC(=O)[C@H](CCC(=O)O)NC(=O)[C@H](CCSC)NC(=O)[C@H](Cc1c[nH]c2ccccc12)NC(=O)[C@@H](NC(=O)[C@H](CCSC)NC(=O)[C@H](CC(N)=O)NC(=O)[C@H](CC(N)=O)NC(=O)[C@H](Cc1c[nH]c2ccccc12)NC(=O)[C@@H](NC(=O)[C@H](CCC(N)=O)NC(=O)[C@H](CCC(=O)O)NC(=O)[C@H](CC(C)C)NC(=O)[C@H](CO)NC(=O)[C@H](CCCCN)NC(=O)[C@H](CC(N)=O)NC(=O)[C@H](CO)NC(=O)[C@@H](N)Cc1c[nH]c2ccccc12)[C@@H](C)CC)[C@@H](C)O)[C@@H](C)CC)[C@@H](C)O)[C@@H](C)CC)C(=O)N[C@@H](CCC(=O)O)C(=O)N[C@@H](CCC(=O)O)C(=O)N[C@@H](CO)C(=O)N[C@@H](CCC(N)=O)C(=O)O [Peptide W37Q] |  |  |  |  | ~20 |  | compare well to both T20 and to T1249 | 5 ± 2 | 10 | significantly greater potency | ~15 | approximately 22 fold |  |  |  |  |  |  | 
CC[C@H](C)[C@H](NC(=O)[C@H](CC(C)C)NC(=O)[C@H](CO)NC(=O)[C@H](Cc1ccc(O)cc1)NC(=O)[C@@H](NC(=O)[C@H](CC(C)C)NC(=O)[C@H](CO)NC(=O)[C@@H](NC(=O)[C@H](Cc1ccc(O)cc1)NC(=O)[C@H](CC(N)=O)NC(=O)[C@H](CC(=O)O)NC(=O)[C@@H](NC(=O)[C@H](CCC(=O)O)NC(=O)[C@H](CCCNC(=N)N)NC(=O)[C@H](CCC(=O)O)NC(=O)[C@H](Cc1c[nH]c2ccccc12)NC(=O)[C@H](CCC(=O)O)NC(=O)[C@H](CCSC)NC(=O)[C@H](Cc1c[nH]c2ccccc12)NC(=O)[C@@H](NC(=O)[C@H](CCSC)NC(=O)[C@H](CC(N)=O)NC(=O)[C@H](CC(N)=O)NC(=O)[C@H](Cc1c[nH]c2ccccc12)NC(=O)[C@@H](NC(=O)[C@H](CCC(N)=O)NC(=O)[C@H](CCC(=O)O)NC(=O)[C@H](CC(C)C)NC(=O)[C@@H](N)CO)[C@@H](C)CC)[C@@H](C)O)[C@@H](C)CC)[C@@H](C)O)[C@@H](C)CC)C(=O)O [Peptide S29I] |  |  |  |  |  |  |  |  |  | broadly similar levels of activity |  |  | 0.06 | >50 | 9.37 (≈ 2.55 µM) | 25 (≈ 6.8 µM) | 6.3 (≈ 1.71 µM) | 0 | 50
